Assay results published in US20110217300A1, “Quinazolinone Compounds and Methods of Use Thereof” (priority 2007, published 2011).
Like-named read-outs stand apart in the source and are kept apart here.

Experiments:
[1] = molecular target: T1, HsEg5 (Homo sapiens, UniProt P52732); test: Fluorescence detection of HsEg5 ATPase activity (ADP Quest, automated); type: biochemical
T1 sequence (P52732 18-359 limits assumed): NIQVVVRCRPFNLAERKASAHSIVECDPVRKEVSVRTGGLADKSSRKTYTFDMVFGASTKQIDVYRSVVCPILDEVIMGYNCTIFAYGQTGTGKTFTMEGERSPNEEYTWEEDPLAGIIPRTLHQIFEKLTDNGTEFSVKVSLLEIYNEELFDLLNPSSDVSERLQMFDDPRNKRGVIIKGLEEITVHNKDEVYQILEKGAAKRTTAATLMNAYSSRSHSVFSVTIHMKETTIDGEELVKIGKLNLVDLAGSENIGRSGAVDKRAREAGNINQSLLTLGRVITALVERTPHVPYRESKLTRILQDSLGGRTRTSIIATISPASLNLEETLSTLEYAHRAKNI
How it was run: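 Microtubule-activated HsEg5 motor fragment (10 nM, 500 nM MTs) preincubated 10 min with compound, then 20 μM ATP for 10 min at room temperature in Pipes pH 7.0, MgCl2, paclitaxel, 0.3% DMSO. ADP detected via coupled-enzyme resorufin fluorescence; IC50 over 100 μM–5 nM.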

[2] = test system: A549; test: MTS cell viability assay; type: cell-based; conditions: Homo sapiens, A549 non small cell lung, 72 hours, read-out: MTS NCI A549 GI50
How it was run: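 A549 and a second human cancer line seeded in DMEM/10% FBS, allowed 16–24 h to attach, then exposed 72 h at 37 °C, 5% CO2 to serially diluted compound (final DMSO 0.33%). Viability measured by MTS.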

[3] = test system: NCI-H460; test: MTS cell viability assay; type: cell-based, human; conditions: Homo sapiens, NCI-H460, 72 h
How it was run: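 Cells in DMEM (4.5 g/L glucose) with 10% heat-inactivated FBS, 10 mM L-glutamine and 10 mM Hepes pH 7.5 at 37° C./5% CO2 were seeded at 100-5000 cells/well, then exposed to serially diluted compound (0.33% DMSO final) for 72 hours. Viability read by MTS/PMS reduction, absorbance 490 nm; GI50 reported.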

[4] = read-out: MTS NCI H460 GI50, NCI-H460 non small cell lung, 72 hours

SMILES | IC50 [1] [nM] | GI50 ([2]; A549, 72 h) [nM] | GI50 [3, 4] [nM] | GI50 [2] [nM] | GI50 ([3]; read-out: MTS NCI H460 GI50) [nM]
CCC(c1nc2cc(Cl)ccc2c(=O)n1Nc1ccccc1)N(CCCN)C(=O)c1ccc(C)cc1 (stereo not drawn) [Compound 3, N-(3-Aminopropyl)-N-[1-(3-anilino-7-chloro-4-oxo-3,4-dihydroquinazolin-2-yl)propyl]-4-methylbenzamide] | 702 | 2300 | 1190 |  | 
CCC(c1nc2cc(Cl)ccc2c(=O)n1Nc1ccccc1)N(CCCN)C(=O)c1cccc(Cl)c1F (stereo not drawn) [Compound 19, N-(3-Aminopropyl)-N-[1-(3-anilino-7-chloro-4-oxo-3,4-dihydroquinazolin-2-yl)propyl]-3-chloro-2-fluorobenzamide] | 582 |  |  | 1570 | 894
CCC(c1nc2cc(Cl)ccc2c(=O)n1Nc1ccccc1F)N(CCCN)C(=O)c1ccc(C)cc1 (stereo not drawn) [Compound 25, N-(3-Aminopropyl)-N-(1-{7-chloro-3-[(2-fluorophenyl)amino]-4-oxo-3,4-dihydroquinazolin-2-yl}propyl)-4-methylbenzamide] | 1430 |  |  | 1520 | 959
CCC(c1nc2cc(Cl)ccc2c(=O)n1Nc1ccccc1)N(CCCN)C(=O)c1ccc(-n2cccn2)cc1 (stereo not drawn) [Compound 23, N-(3-Aminopropyl)-N-[1-(3-anilino-7-chloro-4-oxo-3,4-dihydroquinazolin-2-yl)propyl]-4-(1H-pyrazol-1-yl)benzamide] | 1020 | 2490 | 1120 |  | 
CC(C)C(c1nc2cc(Cl)ccc2c(=O)n1Nc1ccccc1)N(CCCN)C(=O)c1ccc(F)cc1 (stereo not drawn) [Compound 43, N-(3-Aminopropyl)-N-[1-(3-anilino-7-chloro-4-oxo-3,4-dihydroquinazolin-2-yl)-2-methylpropyl]-4-fluorobenzamide] | 833 |  |  | 3490 | 2810
CCC(c1nc2cc(Cl)ccc2c(=O)n1Nc1ccccc1)N(CCCN)C(=O)c1ccc(F)c(F)c1 (stereo not drawn) [Compound 9, N-(3-Aminopropyl)-N-[1-(3-anilino-7-chloro-4-oxo-3,4-dihydroquinazolin-2-yl)propyl]-3,4-difluorobenzamide] | 1160 | 3570 | 2390 |  | 
CCC(c1nc2cc(Cl)ccc2c(=O)n1Nc1ccccc1)N(CCCN)C(=O)c1ccc(Br)cc1 (stereo not drawn) [Compound 2, N-(3-Aminopropyl)-N-[1-(3-anilino-7-chloro-4-oxo-3,4-dihydroquinazolin-2-yl)propyl]-4-bromobenzamide] | 645 |  |  | 2370 | 1750
CCC(c1nc2cc(Cl)ccc2c(=O)n1Nc1ccccc1)N(CCCN)C(=O)c1cccc(Cl)c1Cl (stereo not drawn) [Compound 12, N-(3-Aminopropyl)-N-[1-(3-anilino-7-chloro-4-oxo-3,4-dihydroquinazolin-2-yl)propyl]-2,3-dichlorobenzamide] | 818 |  |  | 3370 | 2110
CC(C)(C)CC(c1nc2cc(Cl)ccc2c(=O)n1Nc1ccccc1)N(CCCN)C(=O)c1ccc(Br)cc1 (stereo not drawn) [Compound 58, N-(3-Aminopropyl)-N-[1-(3-anilino-7-chloro-4-oxo-3,4-dihydroquinazolin-2-yl)-3,3-dimethylbutyl]-4-bromobenzamide] | 3690 |  |  | 5880 | 5550
CCC(c1nc2cc(Cl)ccc2c(=O)n1Nc1cccc(F)c1)N(CCCN)C(=O)c1ccc(C)cc1 (stereo not drawn) [Compound 24, N-(3-Aminopropyl)-N-(1-{7-chloro-3-[(3-fluorophenyl)amino]-4-oxo-3,4-dihydroquinazolin-2-yl}propyl)-4-methylbenzamide] | 1050 |  |  | 1790 | 1090
CCC(c1nc2cc(Cl)ccc2c(=O)n1Nc1ccccc1)N(CCCN)C(=O)c1ccc(F)c(Cl)c1 (stereo not drawn) [Compound 13, N-(3-Aminopropyl)-N-[1-(3-anilino-7-chloro-4-oxo-3,4-dihydroquinazolin-2-yl)propyl]-3-chloro-4-fluorobenzamide] | 749 |  |  | 3570 | 2210
NCCCN(C(=O)c1ccc(F)c(Cl)c1)C(Cc1cccs1)c1nc2cc(Cl)ccc2c(=O)n1Nc1ccccc1 (stereo not drawn) [Compound 53, N-(3-Aminopropyl)-N-[1-(3-anilino-7-chloro-4-oxo-3,4-dihydroquinazolin-2-yl)-2-(2-thienyl)ethyl]-3-chloro-4-fluorobenzamide] | 2620 | 5260 | 4440 |  | 
CCC(c1nc2cc(Cl)ccc2c(=O)n1Nc1ccccc1)N(CCCN)C(=O)c1c(F)ccc(C)c1F (stereo not drawn) [Compound 17, N-(3-Aminopropyl)-N-[1-(3-anilino-7-chloro-4-oxo-3,4-dihydroquinazolin-2-yl)propyl]-2,6-difluoro-3-methylbenzamide] | 1600 | 2560 | 1590 |  | 
CCC(c1nc2cc(Cl)ccc2c(=O)n1Nc1ccccc1)N(CCCN)C(=O)c1ccc2ccccc2n1 (stereo not drawn) [Compound 22, N-(3-Aminopropyl)-N-[1-(3-anilino-7-chloro-4-oxo-3,4-dihydroquinazolin-2-yl)propyl]quinoline-2-carboxamide] | 1610 |  |  | 2080 | 1170
CC(C)CC(c1nc2cc(Cl)ccc2c(=O)n1Nc1ccccc1)N(CCCN)C(=O)c1ccc(F)c(Cl)c1 (stereo not drawn) [Compound 37, N-(3-Aminopropyl)-N-[1-(3-anilino-7-chloro-4-oxo-3,4-dihydroquinazolin-2-yl)-3-methylbutyl]-3-chloro-4-fluorobenzamide] | 1660 | 5020 | 4490 |  | 
CCC(c1nc2cc(Cl)ccc2c(=O)n1Nc1ccccc1)N(CCN)C(=O)c1ccc(F)c(C)c1 (stereo not drawn) [Compound 63, N-(2-Aminoethyl)-N-[1-(3-anilino-7-chloro-4-oxo-3,4-dihydroquinazolin-2-yl)propyl]-4-fluoro-3-methylbenzamide] | 3340 |  |  | 7020 | 10500
NCCCN(C(=O)c1ccc(F)cc1)C(Cc1cccs1)c1nc2cc(Cl)ccc2c(=O)n1Nc1ccccc1 (stereo not drawn) [Compound 51, N-(3-Aminopropyl)-N-[1-(3-anilino-7-chloro-4-oxo-3,4-dihydroquinazolin-2-yl)-2-(2-thienyl)ethyl]-4-fluorobenzamide] | 2800 |  |  | 4450 | 5380
CC[C@H](c1nc2cc(Cl)ccc2c(=O)n1Nc1ccccc1)N(CCCN)S(=O)(=O)c1ccsc1 [Compound 34, N-(3-Aminopropyl)-N-[(1R)-1-(3-anilino-7-chloro-4-oxo-3,4-dihydroquinazolin-2-yl)propyl]thiophene-3-sulfonamide] | 1650 |  |  | 6360 | 5470
CCC(c1nc2cc(Cl)ccc2c(=O)n1Nc1ccccc1)N(CCCN)C(=O)c1ccc(F)cc1 (stereo not drawn) [Compound 8, N-(3-Aminopropyl)-N-[1-(3-anilino-7-chloro-4-oxo-3,4-dihydroquinazolin-2-yl)propyl]-4-fluorobenzamide] | 2130 | 4750 | 2830 |  | 
CC(C)C(c1nc2cc(Cl)ccc2c(=O)n1Nc1ccccc1)N(CCCN)C(=O)c1ccc2ccccc2n1 (stereo not drawn) [Compound 47, N-(3-Aminopropyl)-N-[1-(3-anilino-7-chloro-4-oxo-3,4-dihydroquinazolin-2-yl)-2-methylpropyl]quinoline-2-carboxamide] | 3230 |  |  | 4090 | 2700
C#CCC(c1nc2cc(Cl)ccc2c(=O)n1Nc1ccccc1)N(CCCN)C(=O)c1cccc(Cl)c1F (stereo not drawn) [Compound 57, N-(3-Aminopropyl)-N-[1-(3-anilino-7-chloro-4-oxo-3,4-dihydroquinazolin-2-yl)but-3-yn-1-yl]-3-chloro-2-fluorobenzamide] | 50.6 |  |  | 433 | 766
CCC(c1nc2cc(Cl)ccc2c(=O)n1Nc1ccccc1)N(CCCN)C(=O)c1ccc(Cl)cc1 (stereo not drawn) [Compound 4, N-(3-Aminopropyl)-N-[1-(3-anilino-7-chloro-4-oxo-3,4-dihydroquinazolin-2-yl)propyl]-4-chlorobenzamide] | 720 |  |  | 2400 | 1140
NCCCN(C(=O)c1ccc(Br)cc1)C(Cc1cccs1)c1nc2cc(Cl)ccc2c(=O)n1Nc1ccccc1 (stereo not drawn) [Compound 48, N-(3-Aminopropyl)-N-[1-(3-anilino-7-chloro-4-oxo-3,4-dihydroquinazolin-2-yl)-2-(2-thienyl)ethyl]-4-bromobenzamide] | 2570 |  |  | 4930 | 4360
CCC(c1nc2cc(Cl)ccc2c(=O)n1Nc1ccccc1)N(CCCN)C(=O)c1ccc(C)c(F)c1F (stereo not drawn) [Compound 21, N-(3-Aminopropyl)-N-[1-(3-anilino-7-chloro-4-oxo-3,4-dihydroquinazolin-2-yl)propyl]-2,3-difluoro-4-methylbenzamide] | 1250 | 1930 | 1080 |  | 
